What was measured:
[1] = stability of active ingredient in cosmetic composition; conditions: 40° C., 50° C., −5° C.; two-, four-, six-, eight-, and 12-week time points
Protocol: Two cosmetic compositions were prepared, one containing lapachol (denoted RGN 1538) and the other containing myrtucommulone C (denoted RGN 1518) as active ingredients, and the stabilities of the active ingredients in these compositions were evaluated.

[2] = test system: primary human fibroblasts; test: cytotoxicity assay (Cell Titer96 Aqueous One) on fibroblasts; conditions: 24 h
Protocol: Normal human dermal adult fibroblasts derived from a donor of were purchased from CELLnTec (Bern, Switzerland) and grown in DMEM supplemented with 10% FBS (Life Technologies, CA, USA). Fibroblasts cultures were maintained at 37° C. with 5% CO2 and ˜95% humidity.
(§1) Cytotoxicity was evaluated using the Cell Titer96 Aqueous One (Promega, Wis., USA) basic test according to manufacturer's instructions. Cells were seeded at a density of 10,000 cells/well in a 96-well plate and cultured overnight. Treatments with seven doses of compounds were carried out for 24 hours, in triplicates. Colorimetric analysis was performed using an absorbance of 490 nm. Inhibition of viability of more than 20% of the control values was considered cytotoxic.
The cytotoxicity assay on primary human fibroblasts from adult donor was performed after 24 h of culture in the presence of different concentrations of each compound, as indicated in FIG. 2B and Table 2.

[3] = test system: primary human keratinocytes; test: cytotoxicity assay (Cell Titer96 Aqueous One) on keratinocytes; format: cell-based; conditions: 24 h
Protocol: (§2) Normal primary adult human keratinocytes derived from a donor were purchased from PromoCell (Heidelberg, Germany) and cultured in keratinocytes growth medium (Epilife+EDGS, Thermo Fisher Scientific, NY, USA). Keratinocytes cultures were maintained at 37° C. with 5% CO2 and ˜95% humidity.
as §1
The cytotoxicity assay on primary human keratinocytes from adult donor was performed after 24 h of culture in the presence of different concentrations of each compound, as indicated in FIG. 2A and Table 1.

human fibroblasts = test: microarray analysis of differential gene expression in fibroblasts; format: cell-based
[4] = test system: human epidermal keratinocytes; test: microarray analysis of differential gene expression in keratinocytes; conditions: for number of genes downregulated / number of genes upregulated: 24 h
Protocol: as §2
Normal primary human keratinocytes were seeded in 6-well plates and incubated for 24 h. Cells were then washed in PBS (Thermo Fisher Scientific) and reincubated for 24 more hours in the presence of RGN1518 and RGN1538 (each at two different concentrations), vehicle control, or positive control. Following treatment, the cells were washed with PBS, collected and stored frozen at −80° C. before RNA extraction.
RNA was extracted using a Qiagen RNeasy kit (Qiagen, CA, USA) according to manufacturer's protocol.
18 vials containing RNA isolated from human epidermal keratinocytes and 18 vials containing RNA isolated from human fibroblasts were shipped to Thermo Fisher Scientific, Advanced BioMedical Laboratories (Cinnaminson, N.J.) on dry ice for Affymetrix Human Clariom D array processing.
The differential gene expression was obtained using a threshold of 0.05 for statistical significance (p-value) and a log fold change of expression with absolute value of at least 1. Gene expression was further analysed using Differential Expression Analysis and Pathway Analysis iPathwayGuide) by Advaita Bioinformatics Services (Plymouth, Mich.) in the context of pathways obtained from the Kyoto Encyclopedia of Genes and Genomes (KEGG) database (Release 84.0+/10-26, October 17) (Kanehisa et al., 2000; Kanehisa et al., 2002), gene ontologies from the Gene Ontology Consortium database (2017 Nov. 6) (Ashburner et al., 2000; Gene Ontology Consortium, 2001), miRNAs from the miRBase (Release 21) and […] (Targetscan version:Mouse:7.1, Human:7.1) databases (Agarwal et al., 2015; Nam et al., 2014; Griffiths-Jones et al., 2008; Kozomara and Griffiths-Jones, 2014; Friedman et al., 2009; Grimson et al., 2007), and diseases from the KEGG database (Release 84.0+/10-26, October 17) (Kanehisa et al., 2000; Kanehisa et al., 2002). All references are available in the reports for bioinformatics analysis of differential gene expression provided by Advaita Bioinformatics Services at the following link.

[5] = concentration of 50 (unit not given), 24 h
[6] = wound healing gene, fibroblasts, 24 h

Substance: myrtucommulone C
- acceptable degradation of active compound (20% or 80% of original) [1]: met this criteria
- Avg (% of untreated) ([2]; 6.2 μM): 97%
- Avg (% of untreated) ([2]; 12.4 μM): 94%
- Avg (% of untreated) ([2]; 24.8 μM): 90%
- Avg (% of untreated) ([2]; 50 μM): 88%
- Avg (% of untreated) ([2]; 100 μM): 74%
- Avg (% of untreated) ([2]; 200 μM): 72%
- Avg (% of untreated) ([2]; 400 μM): 54%
- concentrations that showed no cytotoxicity ([2]; unit not given): up to 50
- Avg (% of untreated) ([3]; 6.2 μM): 80%
- Avg (% of untreated) ([3]; 12.4 μM): 44%
- Avg (% of untreated) ([3]; 24.8 μM): 43%
- Avg (% of untreated) ([3]; 50 μM): 47%
- Avg (% of untreated) ([3]; 100 μM): 43%
- Avg (% of untreated) ([3]; 200 μM): 54%
- Avg (% of untreated) ([3]; 400 μM): 51%
- concentrations that showed no cytotoxicity ([3]; unit not given): up to 6.2
- vascular wound healing, spreading of epidermal cells and vasculature development (gene profile) (human fibroblasts): activation
- number of genes downregulated (human fibroblasts; 25 μM, 24 h, of 24905 genes): 430 genes
- number of genes upregulated (human fibroblasts; 25 μM, 24 h, of 24905 genes): 986 genes
- number of genes downregulated (human fibroblasts; 62 μM, 24 h): 76 genes
- number of genes upregulated (human fibroblasts; 62 μM, 24 h): 53 genes
- gene expression of common skin targets (human fibroblasts; CRELD1, NGF, GLRX2, CSGALNACT2, VEGFA, ITGA2, PPARG, EPGN): upregulated
- number of genes involved in wound healing downregulated (human fibroblasts; at both doses): 24 genes
- number of genes involved in wound healing upregulated (human fibroblasts; at both doses): 28 genes
- hair cycle, hair follicle morphogenesis and development (biological processes) (human fibroblasts; both concentrations): affected
- number of genes downregulated (human fibroblasts; [5]): 468 genes
- number of genes upregulated (human fibroblasts; [5]): 821 genes
- Log Fc ACTB (human fibroblasts; [6]): −1.055
- Log Fc ADAM17 (human fibroblasts; [6]): 1.323
- Log Fc AJUBA (human fibroblasts; [6]): −1.145
- Log Fc CARMIL1 (human fibroblasts; [6]): −1.177
- Log Fc DGKE (human fibroblasts; [6]): 1.432
- Log Fc EDN1 (human fibroblasts; [6]): −1.404
- Log Fc EREG (human fibroblasts; [6]): 2.169
- Log Fc F2RL2 (human fibroblasts; [6]): 1.038
- Log Fc F3 (human fibroblasts; [6]): −1.039
- Log Fc FGF10 (human fibroblasts; [6]): −1.313
- Log Fc FGFR1OP2 (human fibroblasts; [6]): 1.213
- Log Fc GATA6 (human fibroblasts; [6]): −1.081
- Log Fc GSN (human fibroblasts; [6]): −1.041
- Log Fc HBEGF (human fibroblasts; [6]): 1.225
- Log Fc HIST1H3G (human fibroblasts; [6]): −2.339
- Log Fc HIST2H3A (human fibroblasts; [6]): −1.285
- Log Fc HMOX1 (human fibroblasts; [6]): 1.346
- Log Fc IFRD1 (human fibroblasts; [6]): 1.072
- Log Fc IL6 (human fibroblasts; [6]): 2.578
- Log Fc IL24 (human fibroblasts; [6]): 1.179
- Log Fc IRF1 (human fibroblasts; [6]): 1.27
- Log Fc ITGA2 (human fibroblasts; [6]): 2.425
- Log Fc ITGB3 (human fibroblasts; [6]): 2.051
- Log Fc ITPR1 (human fibroblasts; [6]): 1.812
- Log Fc LBH (human fibroblasts; [6]): −1.524
- Log Fc MAFK (human fibroblasts; [6]): 1.267
- Log Fc MERTK (human fibroblasts; [6]): 1.107
- Log Fc MIR199A1 (human fibroblasts; [6]): 2.142
- Log Fc MIR221 (human fibroblasts; [6]): 1.648
- Log Fc MYLK (human fibroblasts; [6]): −1.62
- Log Fc NDNF (human fibroblasts; [6]): 1.132
- Log Fc NOV (human fibroblasts; [6]): −1.524
- Log Fc PDGFD (human fibroblasts; [6]): −1.782
- Log Fc PDPN (human fibroblasts; [6]): 1.265
- Log Fc PLAUR (human fibroblasts; [6]): 1.077
- Log Fc PLET1 (human fibroblasts; [6]): 1.412
- Log Fc PLPP3 (human fibroblasts; [6]): −1.23
- Log Fc RAB27A (human fibroblasts; [6]): 1.228
- Log Fc SMAD3 (human fibroblasts; [6]): −1.102
- Log Fc SYT7 (human fibroblasts; [6]): 1.079
- Log Fc TFPI2 (human fibroblasts; [6]): 2.549
- Log Fc TGFBR2 (human fibroblasts; [6]): −1.067
- Log Fc THBD (human fibroblasts; [6]): 4.119
- Log Fc THBS1 (human fibroblasts; [6]): −1.287
- Log Fc TLN1 (human fibroblasts; [6]): −1.13
- Log Fc TMEFF2 (human fibroblasts; [6]): −1.526
- Log Fc TNFAIP3 (human fibroblasts; [6]): 2.328
- Log Fc TPM1 (human fibroblasts; [6]): −1.209
- Log Fc TRPC6 (human fibroblasts; [6]): −2.444
- Log Fc UBASH3B (human fibroblasts; [6]): 1.546
- Log Fc WNT5A (human fibroblasts; [6]): −1.732
- expression of DNAJB9 [4]: upregulated
- expression of cell cycle genes PKMYT1, MYC [4]: upregulated
- number of genes downregulated ([4]; 1.6 μM): 1196 genes
- number of genes upregulated ([4]; 1.6 μM): 492 genes
- number of genes downregulated ([4]; 3.1 μM, of 24905 genes): 1294 genes
- number of genes upregulated ([4]; 3.1 μM, of 24905 genes): 693 genes
- expression of cell cycle genes ([4]; CDK1, PLK1, RB1, CDC25C, CDC25B, MAD2L1, CDKN2B, CCNA2, MAD1L1, TTK, ZBTB17, RBL1, CCNB1, CCNB2, BUB1, CDC20, PTTG1, BUB1B): downregulated
- expression of genes maintaining structure and activity of the Golgi apparatus ([4]; COG6, ARFGAP3, IFT20, MGAT4): upregulated
- expression of genes important for normal differentiation and function of skin ([4]; FGF2, VEGFA, SERPINB1, CDH4, GDF15): upregulated
- expression of genes involved in Metabolic Pathways ([4]; GK, FA2H, ASS1, ACSS2, HK2, PHGDH, CYP1A1, CSGALNACT2): upregulated
- expression of genes associated with inflammation ([4]; IL1A, IL6, IL1R2, IL1RL1, IL2RG, TSC22D3): upregulated
- expression of genes involved in Metabolic Pathways ([4]; MTHFD1, CYP2J2, RRM2, TYMS): downregulated

From patent US11013673B2, “Cosmetic compositions containing quinones and their topical use on skin and hair” (Repairogen Corp, priority 2016, dated 2021)
